The values that follow come from EP0228113A2 (priority 1985, dated 1987).

Molecules are shown by their SMILES. In brackets after ≈: the same amount, converted by molar mass. Some results are limits rather than exact numbers.

What all share (type): cell-based
Experiment [1] relates to Legionella pneumophila gr. 5. The experiment in a line: microbe, parasite or virus in culture. The note with it: GR.5, 96 h, pH 6.
Experiment [2] has as its system Legionella pneumophila gr. 1. As to the kind of experiment: microbe, parasite or virus in culture. Particulars: GR.1, 96 h, pH 6.
For experiment [3], the system named is L.dumoffii. As to the kind of experiment: microbe, parasite or virus in culture. The note with it: pH 6; 48 hours; 37°C.
For experiment [4], the system named is L.pneumophila gr.10. The experiment in a line: microbe, parasite or virus in culture. The note with it: Legionella pneumophila, GR.10, 48 h, pH 6.
Experiment [5] concerns Myxococcus xanthus. The experiment in a line: MIC determination on casitone agar (Example III). Particulars: 96 h, pH 7.6, casitone agar pH 7,6, four days, 30°C.
Experiment [6] deals with L.oakridgensis. As to the kind of experiment: microbe, parasite or virus in culture. The note with it: pH 6; 48 hours; 37°C.
The test system of experiment [7] is L.pneumophila gr. 2. The experiment in a line: microbe, parasite or virus in culture. Particulars: Legionella pneumophila, GR.2, 48 h, pH 6.
The test system of experiment [8] is L.pneumophila gr. 9. The experiment in a line: microbe, parasite or virus in culture. The note with it: Legionella pneumophila, GR.9, 48 h, pH 6.
Experiment [9] has as its system L.pneumophila gr. 3. The experiment in a line: microbe, parasite or virus in culture. Particulars: Legionella pneumophila, GR.3, 48 h, pH 6.
Experiment [10] concerns L.pneumophila gr. 8. As to the kind of experiment: microbe, parasite or virus in culture. The note with it: Legionella pneumophila, GR.8, 48 h, pH 6.
The subject of experiment [11] is L.micdadei. As to the kind of experiment: microbe, parasite or virus in culture. The note with it: pH 6; 48 hours; 37°C.
Experiment [12] deals with L.pneumophila gr. 7. The experiment in a line: microbe, parasite or virus in culture. The note with it: Legionella pneumophila, GR.7, 48 h, pH 6.
Experiment [13] deals with L.longbeachae gr. 2. As to the kind of experiment: microbe, parasite or virus in culture. Particulars: pH 6; 48 hours; 37°C.
Experiment [14] has as its system L.pneumophila gr. 4. The experiment in a line: microbe, parasite or virus in culture. The note with it: Legionella pneumophila, GR.4, 48 h, pH 6.
Experiment [15] has as its system L.longbeachae gr. 1. As to the kind of experiment: microbe, parasite or virus in culture. The note with it: pH 6; 48 hours; 37°C.
Experiment [16] relates to L.wadsworthii. The experiment in a line: microbe, parasite or virus in culture. Particulars: pH 6; 48 hours; 37°C.
Experiment [17] concerns L.bozemanii gr. 1. As to the kind of experiment: microbe, parasite or virus in culture. The note with it: pH 6; 48 hours; 37°C.
The test system of experiment [18] is L.pneumophila gr. 5. The experiment in a line: microbe, parasite or virus in culture. The note with it: Legionella pneumophila, GR.5, 48 h, pH 6.
Experiment [19] relates to L.jordanis. The experiment in a line: microbe, parasite or virus in culture. The note with it: pH 6; 48 hours; 37°C.
Experiment [20] relates to L.pneumophila gr. 6. As to the kind of experiment: microbe, parasite or virus in culture. The note with it: Legionella pneumophila, GR.6, 48 h, pH 6.
Experiment [21] concerns L.gormanii. As to the kind of experiment: MIC determination on buffered charcoal yeast-extract agar (Example I). Particulars: Fluoribacter gormanii, pH 6,9, 48 hours, 37°C.

Turning to `OC(c1ccc(Cl)cc1)(c1cncnc1)c1ccccc1Cl` (stereo not drawn) [fenarimol], the MIC in experiment [1] and in [2] was 100 mg/L (≈ 302 µM) throughout.
With `CCCCCCCCCCCCCN1CC(C)OC(C)C1` (stereo not drawn) [tridemorph], the MIC amounted to 50 mg/L (≈ 168 µM) in [1] and 100 mg/L (≈ 336 µM) in experiment [2].
As for `CCC1COC(Cn2cncn2)(c2ccc(Cl)cc2Cl)O1` (stereo not drawn) [etaconazole], the MIC in experiment [1] and in experiment [2] was greater than 100 mg/L each time.
`Clc1ccccc1C(c1ccccc1)(c1ccccc1)n1ccnc1` [clotrimazole]: the MIC in [3] amounted to 16 mg/L (≈ 46.4 µM); in experiment [4], 16 mg/L (≈ 46.4 µM); in experiment [5] it was 2 mg/L (≈ 5.8 µM); in [6], 8 mg/L (≈ 23.2 µM); in experiment [7], 16 mg/L (≈ 46.4 µM); in [8] it was 16 mg/L (≈ 46.4 µM). Also, the MIC amounted to 8 mg/L (≈ 23.2 µM) in experiment [9]; 16 mg/L (≈ 46.4 µM) in experiment [10]; 16 mg/L (≈ 46.4 µM) in experiment [11]; 16 mg/L (≈ 46.4 µM) in experiment [12]; 16 mg/L (≈ 46.4 µM) in experiment [13]; 16 mg/L (≈ 46.4 µM) in [14]. The MIC in experiment [15] is 16 mg/L (≈ 46.4 µM); in experiment [16], 8 mg/L (≈ 23.2 µM); in experiment [17] it was 8 mg/L (≈ 23.2 µM); in experiment [18] it was 16 mg/L (≈ 46.4 µM); in experiment [19] it was 16 mg/L (≈ 46.4 µM); in [20] it was 16 mg/L (≈ 46.4 µM). In addition, the MIC in [21] is 8 mg/L (≈ 23.2 µM).
Take `c1ccc(-c2ccc(C(c3ccccc3)n3ccnc3)cc2)cc1` (stereo not drawn) [bifonazole]: the MIC came out at 64 mg/L (≈ 206 µM) in experiment [3]; 128 mg/L (≈ 412 µM) in experiment [4]; 64 mg/L (≈ 206 µM) in [6]; 128 mg/L (≈ 412 µM) in [7]; 128 mg/L (≈ 412 µM) in experiment [8]; 128 mg/L (≈ 412 µM) in experiment [9]. Besides, the MIC amounted to 128 mg/L (≈ 412 µM) in experiment [10]; 64 mg/L (≈ 206 µM) in [11]; 128 mg/L (≈ 412 µM) in experiment [12]; 64 mg/L (≈ 206 µM) in experiment [13]; 128 mg/L (≈ 412 µM) in experiment [14]; 64 mg/L (≈ 206 µM) in experiment [15]. The MIC in experiment [16] was 32 mg/L (≈ 103 µM); in experiment [17], 128 mg/L (≈ 412 µM); in experiment [18], 64 mg/L (≈ 206 µM); in experiment [19], 64 mg/L (≈ 206 µM); in experiment [20] it was 64 mg/L (≈ 206 µM); in [21], 128 mg/L (≈ 412 µM).
Consider `Clc1ccc(COC(Cn2ccnc2)c2ccc(Cl)cc2Cl)c(Cl)c1` (stereo not drawn) [miconazole], for which the MIC in [3] stood at 128 mg/L (≈ 308 µM); in [4], 128 mg/L (≈ 308 µM); in experiment [5], 2 mg/L (≈ 4.81 µM); in experiment [6], 64 mg/L (≈ 154 µM); in experiment [7], 128 mg/L (≈ 308 µM); in [8], 128 mg/L (≈ 308 µM). The MIC in experiment [9], in experiment [10], in experiment [11], in [12], in experiment [13] and in experiment [14] was 128 mg/L (≈ 308 µM) throughout. Further, the MIC in experiment [15], in experiment [16], in experiment [17], in experiment [18], in experiment [19] and in experiment [20] was 128 mg/L (≈ 308 µM) each time. Besides, in experiment [21], the MIC stood at 128 mg/L (≈ 308 µM).
On to `Clc1ccccc1C(c1ccc(-c2ccccc2)cc1)n1ccnc1` (stereo not drawn) [lombazole], for which the MIC in experiment [3] worked out at 64 mg/L (≈ 186 µM); in [4], 64 mg/L (≈ 186 µM); in experiment [5], 2 mg/L (≈ 5.8 µM); in experiment [6] it was 64 mg/L (≈ 186 µM); in experiment [7], 128 mg/L (≈ 371 µM); in experiment [8], 128 mg/L (≈ 371 µM). The MIC in experiment [9] came out at 128 mg/L (≈ 371 µM); in experiment [10], 128 mg/L (≈ 371 µM); in [11] it was 64 mg/L (≈ 186 µM); in [12], 128 mg/L (≈ 371 µM); in [13], 64 mg/L (≈ 186 µM); in [14], 128 mg/L (≈ 371 µM). Besides, the MIC in experiment [15] was 64 mg/L (≈ 186 µM); in [16], 32 mg/L (≈ 92.8 µM); in experiment [17], 128 mg/L (≈ 371 µM); in experiment [18], 64 mg/L (≈ 186 µM); in experiment [19], 64 mg/L (≈ 186 µM); in [20], 64 mg/L (≈ 186 µM). In experiment [21], the MIC is 64 mg/L (≈ 186 µM).
